Reference: ChEMBL document CHEMBL1134718, “N-acyloxymethyl carbamate linked prodrugs of pseudomycins are novel antifungal agents” (2001)
In brackets after ≈: the same amount, converted by molar mass. Positions of bridges follow the written chain, without caps; N, C: chain ends. Non-standard residues stand in square brackets, D forms with d. Residues, ends and D or L forms follow the SMILES beside them. *: point of attachment. Tetradecanoyl(3R-OH) = CCCCCCCCCCC[C@@H](O)CC(=O)*; Asp(3S-OH) = N[C@H](C(=O)O)[C@H](O)C(=O)O; Thr(4-Cl) = N[C@H](C(=O)O)[C@H](O)CCl; aThr = C[C@H](O)[C@H](N)C(=O)O; dDab = NCC[C@@H](N)C(=O)O; Dab = NCC[C@H](N)C(=O)O; Dhb = C/C=C(\N)C(=O)O

What was measured:
Mus musculus [1] = assay: The compound was tested for antifungal activity in tail vein irritation model 7 days after a dose of 20 mg/kg administered intravenously at 0,24,48,72 h; Positive; format: functional, organism-based; set-up: dose 20 mg/kg
Mus musculus [2] = assay: The compound was tested for antifungal activity in tail vein irritation model 7 days after a dose of 20 mg/kg administered intravenously at 0,24,48,72 h; Negative; format: functional, organism-based; set-up: dose 20 mg/kg
Aspergillus fumigatus = assay: Minimum inhibitory concentration against Aspergillus fumigatus; format: functional
Candida albicans = assay: Minimum inhibitory concentration against Candida albicans.; format: functional
Mus musculus [3] = assay: Effective dose against disseminated Candidiasis mouse model after intraperitoneal administration; Value represented as 6.4/14.1; format: functional
Cryptococcus neoformans = assay: Minimum inhibitory concentration against Cryptococcus neoformans.
Mus musculus [4] = assay: Effective dose against disseminated Candidiasis mouse model after intraperitoneal administration; format: functional
Mus musculus [5] = assay: Effective dose against disseminated Candidiasis mouse model after intraperitoneal administration; Value ranges from 2.5-7.2; format: functional
Mus musculus [6] = assay: Effective dose against disseminated Candidiasis mouse model after intraperitoneal administration; Value ranges from 7.8-12.4; format: functional

Row | SMILES | Toxicity (Mus musculus [1]) | Toxicity (Mus musculus [2]) | MIC (Aspergillus fumigatus) | MIC (Candida albicans) | MIC (Cryptococcus neoformans) | ED50 (Mus musculus [4]) | further results
1 | C/C=C1/NC(=O)[C@H]([C@H](C)O)NC(=O)[C@@H](CCNC(=O)OCOC(C)=O)NC(=O)[C@H](CCCCNC(=O)OCOC(C)=O)NC(=O)[C@H](CC(=O)O)NC(=O)[C@@H](CCNC(=O)OCOC(C)=O)NC(=O)[C@@H](NC(=O)C[C@H](O)CCCCCCCCCCC)COC(=O)[C@H]([C@H](O)CCl)NC(=O)[C@H]([C@H](O)C(=O)O)NC1=O | Positive |  |  |  |  |  | 
2 | C/C=C1/NC(=O)[C@H]([C@H](C)O)NC(=O)[C@@H](CCN)NC(=O)[C@H](CCCCN)NC(=O)[C@H](CC(=O)O)NC(=O)[C@@H](CCN)NC(=O)[C@@H](NC(=O)C[C@H](O)CCCCCCCCCCCCC)COC(=O)[C@H]([C@H](O)CCl)NC(=O)[C@H]([C@H](O)C(=O)O)NC1=O | Positive |  |  |  |  |  | 
3 | C/C=C1/NC(=O)[C@H]([C@H](C)O)NC(=O)[C@@H](CCNC(=O)OCOC(=O)C(C)(C)C)NC(=O)[C@H](CCCCNC(=O)OCOC(=O)C(C)(C)C)NC(=O)[C@H](CC(=O)O)NC(=O)[C@@H](CCNC(=O)OCOC(=O)C(C)(C)C)NC(=O)[C@@H](NC(=O)C[C@H](O)CCCCCCCCCCC)COC(=O)[C@H]([C@H](O)CCl)NC(=O)[C@H]([C@H](O)C(=O)O)NC1=O |  | Negative |  |  |  |  | 
4 | C/C=C1/NC(=O)[C@H]([C@H](C)O)NC(=O)[C@H](CCNC(=O)OCOC(=O)C(C)(C)C)NC(=O)[C@H](CCCCNC(=O)OCOC(=O)C(C)(C)C)NC(=O)[C@H](CC(=O)O)NC(=O)[C@@H](CCNC(=O)OCOC(=O)C(C)(C)C)NC(=O)[C@@H](NC(=O)C[C@H](O)CCCCCCCCCCC)COC(=O)[C@H]([C@H](O)CCl)NC(=O)[C@H]([C@H](O)C(=O)O)NC1=O |  |  | > 20 µg/mL | > 20 µg/mL | > 20 µg/mL |  | ED50 (Mus musculus [3]): 6.4 mg 4kg-1
5 | C/C=C1/NC(=O)[C@H]([C@H](C)O)NC(=O)[C@@H](CCNC(=O)OCOC(=O)C(C)(C)C)NC(=O)[C@H](CCCCNC(=O)OCOC(=O)C(C)(C)C)NC(=O)[C@H](CC(=O)O)NC(=O)[C@@H](CCNC(=O)OCOC(=O)C(C)(C)C)NC(=O)[C@@H](NC(=O)C[C@H](O)CCCCCCCCCCCCC)COC(=O)[C@H]([C@H](O)CCl)NC(=O)[C@H]([C@H](O)C(=O)O)NC1=O |  | Negative |  |  |  |  | 
6 | C/C=C1/NC(=O)[C@H]([C@H](C)O)NC(=O)[C@H](CCNC(=O)OCOC(=O)C(C)(C)C)NC(=O)[C@H](CCCCNC(=O)OCOC(=O)C(C)(C)C)NC(=O)[C@H](CC(=O)O)NC(=O)[C@@H](CCNC(=O)OCOC(=O)C(C)(C)C)NC(=O)[C@@H](NC(=O)C[C@H](O)CCCCCCCCCCCCC)COC(=O)[C@H]([C@H](O)CCl)NC(=O)[C@H]([C@H](O)C(=O)O)NC1=O |  |  | > 20 µg/mL | > 20 µg/mL | > 20 µg/mL | 9 mg 4kg-1 | 
7 | C/C=C1\NC(=O)[C@H]([C@H](C)O)NC(=O)[C@H](CCN)NC(=O)[C@H](CCCCN)NC(=O)[C@H](CC(=O)O)NC(=O)[C@@H](CCN)NC(=O)[C@@H](NC(=O)C[C@H](O)CCCCCCCCCCC)COC(=O)[C@H]([C@H](O)CCl)NC(=O)[C@H]([C@H](O)C(=O)O)NC1=O [PSEUDOMYCIN B] ({Tetradecanoyl(3R-OH)}-S[dDab]DK[Dab][aThr][Dhb][Asp(3S-OH)][Thr(4-Cl)]; ester 1-C) | Positive |  | 20 µg/mL (≈ 16.6 µM) | 0.625 µg/mL (≈ 0.517 µM) | 0.039 µg/mL (≈ 0.0323 µM) |  | ED50 (Mus musculus [5]): 2.5 mg 4kg-1
8 | C/C=C1/NC(=O)[C@H]([C@H](C)O)NC(=O)[C@H](CCN)NC(=O)[C@H](CCCCN)NC(=O)[C@H](CC(=O)O)NC(=O)[C@@H](CCN)NC(=O)[C@@H](NC(=O)C[C@H](O)CCCCCCCCCCCCC)COC(=O)[C@H]([C@H](O)CCl)NC(=O)[C@H]([C@H](O)C(=O)O)NC1=O [PSEUDOMYCIN C] |  |  | 10 µg/mL (≈ 8.09 µM) | 0.312 µg/mL (≈ 0.252 µM) | < 0.02 µg/mL |  | ED50 (Mus musculus [6]): 7.8 mg 4kg-1
9 | C/C=C1/NC(=O)[C@H]([C@H](C)O)NC(=O)[C@H](CCNC(=O)OCOC(C)=O)NC(=O)[C@H](CCCCNC(=O)OCOC(C)=O)NC(=O)[C@H](CC(=O)O)NC(=O)[C@@H](CCNC(=O)OCOC(C)=O)NC(=O)[C@@H](NC(=O)C[C@H](O)CCCCCCCCCCC)COC(=O)[C@H]([C@H](O)CCl)NC(=O)[C@H]([C@H](O)C(=O)O)NC1=O |  |  |  |  |  | 13 mg 4kg-1 | 
10 | C/C=C1/NC(=O)[C@H]([C@H](C)O)NC(=O)[C@@H](CCNC(=O)OC(C)OC(C)=O)NC(=O)[C@H](CCCCNC(=O)OC(C)OC(C)=O)NC(=O)[C@H](CC(=O)O)NC(=O)[C@@H](CCNC(=O)OC(C)OC(C)=O)NC(=O)[C@@H](NC(=O)C[C@H](O)CCCCCCCCCCC)COC(=O)[C@H]([C@H](O)CCl)NC(=O)[C@H]([C@H](O)C(=O)O)NC1=O (some centres undefined) |  | Negative |  |  |  | >20 mg 4kg-1 | 
